This is an account of results in patent US7186830B2, “Tricyclic 2-pyrimidone compounds useful as HIV reverse transcriptase inhibitors” (Bristol-Myers Squibb Company, priority 2002, dated 2007).

As for `Cc1nc2c(c(=O)[nH]1)Nc1ccc(C#N)cc1C2(COC(C)C)C(F)(F)F` (centres unmarked) [Example 7, 8-Cyano-10-(isopropoxymethyl)-2-methyl-10-(trifluoromethyl)-5,10-dihydropyrimido[5,4-b]quinolin-4(3H)-one], the melting point (commonly the temperature, or range, at which the solid turns liquid) is 277.3 to 278.1 °C (dec.).
With `N#Cc1ccc2c(c1)C(CCC1CC1)(C(F)(F)F)c1nc[nH]c(=O)c1N2` (centres unmarked) [Example 9, 8-Cyano-10-(2-cyclopropylethyl)-10-(trifluoromethyl)-5,10-dihydropyrimido[5,4-b]quinolin-4(3H)-one], the melting point is > 280 °C.
